Converted amounts (≈) assume the structure as drawn. Like-named read-outs stand apart in the source and are kept apart here.
Assays:
Assay type in all cases: cell-based
Enterobacter cloacae = experiment: Biocidal effect on bacteria, gram-negative (agar plate); details: 24 h, read-out: Minimum Inhibitory Concentration (MIC)
Procedure: (§1) Tests were made to determine the biocidal properties of the epicatechin-4-alkylsulfides prepared in Examples 1 and 2 on different wood-rotting fungi and bacteria.
(§2) Agar plates containing the test compounds were made as above, but with brain-heart infusion agar. The plates were inoculated with a standardized suspension of bacterial cells using a calibrated 3 mm loop and incubated at 35° C. After one day (two days for Micrococcus luteus), the number of resulting bacteria cultures were counted. Streptomycin was used under the same conditions on each test organism for a comparison.

Escherchia coli = experiment: as above; details: 24 h; no colonies observed; brain-heart infusion agar, 35° C., one day; max. tested 500 ppm; read-out: Minimum Inhibitory Concentration (MIC)
Procedure: as §1, §2

Klebsiella pneumoneae = experiment: as above; details: 24 h, read-out: Minimum Inhibitory Concentration (MIC)
Procedure: as §1, §2

Pseudomonas aeruginosa = experiment: as above; details: 24 h, read-out: Minimum Inhibitory Concentration (MIC)
Procedure: as §1, §2

Bacillus cereus = experiment: Biocidal effect on bacteria, gram-positive (agar plate); details: 24 h, read-out: Minimum Inhibitory Concentration (MIC)
Procedure: as §1, §2

Micrococcus liteus = experiment: as above; details: 48 h, read-out: Minimum Inhibitory Concentration (MIC)
Procedure: as §1, §2

Streptococcus faciens = experiment: as above; details: 24 h, read-out: Minimum Inhibitory Concentration (MIC)
Procedure: as §1, §2

Coriolus versicolor = experiment: Biocidal effect on wood-destroying fungi, white-rotters (agar plate mycelium growth); details: Trametes versicolor; no growth observed; malt extract agar, 26° C.; max. tested 1000 ppm; read-out: Minimum Inhibitory Concentration (MIC)
Procedure: as §1
(§3) Agar plates containing the epicatechin-4-alkylsulfide to be tested were prepared by adding one part of an ethanol solution containing a known concentration of the test compound to 99 parts of molten malt extract agar. After thorough mixing, the medium was poured into 8 cm petri dishes. When the agar had cooled and hardened, the plates were inoculated by placing in the center of the plate a 5 mm diameter plug taken from an agar plate containing an actively growing culture of the test organism and incubated at 26° C. The diameter of the mycelium formed was measured when the culture on a control plate (containing no test compound) had reached the perimeter of the petri dish, or after seven days, whichever came first. Three duplicates were run for each test compound/test organism combination.

[1] = test system: Phanerochaete chrysosporium; experiment: as above; details: Phanerodontia chrysosporium; no growth observed; malt extract agar, 26° C.; max. tested 1000 ppm; read-out: Minimum Inhibitory Concentration (MIC)
Procedure: as §1, §3

Geophyllum trabeum = experiment: Biocidal effect on wood-destroying fungi, brown-rotters (agar plate mycelium growth); details: no growth observed; malt extract agar, 26° C.; max. tested 1000 ppm; read-out: Minimum Inhibitory Concentration (MIC)
Procedure: as §1, §3

Poria placenta = experiment: as above; details: no growth observed; malt extract agar, 26° C.; max. tested 1000 ppm; read-out: Minimum Inhibitory Concentration (MIC)
Procedure: as §1, §3

Lecythophora hoffmannii = experiment: Biocidal effect on wood-destroying fungi, soft-rotters (agar plate mycelium growth); details: Coniochaeta hoffmannii; no growth observed; malt extract agar, 26° C.; max. tested 1000 ppm; read-out: Minimum Inhibitory Concentration (MIC)
Procedure: as §1, §3

Scytalidium lignicola = experiment: as above; details: no growth observed, malt extract agar, 26° C., max. tested 1000 ppm, read-out: Minimum Inhibitory Concentration (MIC)
Procedure: as §1, §3

fungi = experiment: Fungicidal effect against a variety of fungi (overall statement); details: at the concentrations tested
Procedure: as §1, §3

gram-positive bacteria = experiment: Effect against gram-positive bacteria compared with streptomycin (overall statement); details: versus streptomycin under the same conditions
Procedure: as §1, §2

Pycnoporus cinnabarinus = experiment: Biocidal effect on wood-destroying fungi, white-rotters (agar plate mycelium growth); details: Trametes cinnabarina; no growth observed; malt extract agar, 26° C.; max. tested 1000 ppm; read-out: Minimum Inhibitory Concentration (MIC)
Procedure: as §1, §3

Wolfiporia cocos = experiment: Biocidal effect on wood-destroying fungi, brown-rotters (agar plate mycelium growth); details: no growth observed, malt extract agar, 26° C., max. tested 1000 ppm, read-out: Minimum Inhibitory Concentration (MIC)
Procedure: as §1, §3

Chaetomium globosom = experiment: Biocidal effect on wood-destroying fungi, soft-rotters (agar plate mycelium growth); details: no growth observed, malt extract agar, 26° C., max. tested 1000 ppm, read-out: Minimum Inhibitory Concentration (MIC)
Procedure: as §1, §3

bacteria = experiment: Bactericidal effect (overall statement); details: at the concentrations tested
Procedure: as §1, §2

[2] = no colonies observed, brain-heart infusion agar, 35° C., one day, max. tested 500 ppm
[3] = no colonies observed, brain-heart infusion agar, 35° C., two days, max. tested 500 ppm

Compound	MIC (Escherchia coli)	MIC (Coriolus versicolor)	MIC [1]	MIC (Geophyllum trabeum)	MIC (Poria placenta)	MIC (Lecythophora hoffmannii)	MIC (Scytalidium lignicola)	MIC (Enterobacter cloacae; [2])	MIC (Klebsiella pneumoneae; [2])	MIC (Pseudomonas aeruginosa; [2])	MIC (Bacillus cereus; [2])	MIC (Micrococcus liteus; [3])	MIC (Streptococcus faciens; [2])	fungicidal properties (fungi)	MIC (Pycnoporus cinnabarinus)	MIC (Wolfiporia cocos)	MIC (Chaetomium globosom)	other results
[H]/N=C(/N)N[C@H]1[C@H](O)[C@@H](O)[C@H](O[C@@H]2O[C@@H](C)[C@](O)(C=O)[C@H]2O[C@@H]2O[C@@H](CO)[C@H](O)[C@@H](O)[C@@H]2NC)[C@@H](N/C(N)=N\[H])[C@@H]1O [Strep, Streptomycin, reference compound]	5 µg/mL (≈ 8.6 µM)	–	–	–	–	–	–	–	–	–	–	–	–	–	–	–	–	MIC (Enterobacter cloacae): 1 µg/mL (≈ 1.72 µM); MIC (Klebsiella pneumoneae): 8 µg/mL (≈ 13.8 µM); MIC (Pseudomonas aeruginosa): 50 µg/mL (≈ 86 µM); MIC (Bacillus cereus): 20 µg/mL (≈ 34.4 µM); MIC (Micrococcus liteus): 8 µg/mL (≈ 13.8 µM); MIC (Streptococcus faciens): 50 µg/mL (≈ 86 µM)
CCCCCCCCCCSC1c2c(O)cc(O)cc2OC(c2ccc(O)c(O)c2)C1O (stereo not shown) [C10]	500 µg/mL (≈ 1080 µM)	200 µg/mL	50 µg/mL	1000 µg/mL	1000 µg/mL	300 µg/mL	8 µg/mL	500 µg/mL (≈ 1080 µM)	500 µg/mL (≈ 1080 µM)	300 µg/mL (≈ 648 µM)	5 µg/mL (≈ 10.8 µM)	5 µg/mL (≈ 10.8 µM)	30 µg/mL (≈ 64.8 µM)	effective fungicide	–	–	–	effectiveness against gram-positive bacteria compared with streptomycin (gram-positive bacteria): substantially more effective
CCCCCCSC1c2c(O)cc(O)cc2OC(c2ccc(O)c(O)c2)C1O (stereo not shown) [C6]	300 µg/mL (≈ 738 µM)	800 µg/mL	250 µg/mL	1000 µg/mL	500 µg/mL	800 µg/mL	80 µg/mL	300 µg/mL (≈ 738 µM)	500 µg/mL (≈ 1230 µM)	500 µg/mL (≈ 1230 µM)	80 µg/mL (≈ 197 µM)	50 µg/mL (≈ 123 µM)	200 µg/mL (≈ 492 µM)	–	500 µg/mL	500 µg/mL	500 µg/mL	–
CCCCCCCCCCCCSC1c2c(O)cc(O)cc2OC(c2ccc(O)c(O)c2)C1O (stereo not shown) [C12]	500 µg/mL (≈ 1020 µM)	1000 µg/mL	1000 µg/mL	1000 µg/mL	1000 µg/mL	1000 µg/mL	100 µg/mL	–	500 µg/mL (≈ 1020 µM)	–	50 µg/mL (≈ 102 µM)	50 µg/mL (≈ 102 µM)	75 µg/mL (≈ 153 µM)	–	1000 µg/mL	1000 µg/mL	1000 µg/mL	–
Oc1cc(O)c2c(c1)O[C@H](c1ccc(O)c(O)c1)[C@H](O)C2 [Epicatechin, reference compound]	–	–	–	–	–	–	–	–	–	–	–	–	–	no fungicidal	–	–	–	bactericidal properties (bacteria): minimal bactericidal properties
CCCCCCCCSC1c2c(O)cc(O)cc2OC(c2ccc(O)c(O)c2)C1O (stereo not shown) [C8]	500 µg/mL (≈ 1150 µM)	250 µg/mL	100 µg/mL	1000 µg/mL	250 µg/mL	400 µg/mL	25 µg/mL	–	500 µg/mL (≈ 1150 µM)	–	20 µg/mL (≈ 46 µM)	40 µg/mL (≈ 92 µM)	60 µg/mL (≈ 138 µM)	effective fungicide	1000 µg/mL	1000 µg/mL	1000 µg/mL	–
CCCCCCCCCCCCCCCCSC1c2c(O)cc(O)cc2OC(c2ccc(O)c(O)c2)C1O (stereo not shown) [C16]	500 µg/mL (≈ 914 µM)	1000 µg/mL	1000 µg/mL	1000 µg/mL	1000 µg/mL	1000 µg/mL	200 µg/mL	500 µg/mL (≈ 914 µM)	500 µg/mL (≈ 914 µM)	50 µg/mL (≈ 91.4 µM)	75 µg/mL (≈ 137 µM)	75 µg/mL (≈ 137 µM)	100 µg/mL (≈ 183 µM)	–	–	–	–	–
